≈ marks a conversion by molar mass, not a printed value.
How the values were obtained:
Format in all cases: cell-based
[1] = tested on: Pseudomonas aeruginosa PA14 wild-type; experiment: microbe, parasite or virus in culture; conditions: for differences in planktonic cell susceptibility between the different strains: wild type vs gacS^− vs SCV, log2 difference or less
Method: (§1) Antimicrobial susceptibility testing. Antibiotic, metal and biocide susceptibility tests were performed. Antimicrobials were arranged into arrays in microtitre plates that typically consisted of serial two-fold dilutions along the rows of wells (the challenge plates). The first and last wells of every row were used as sterility and growth controls, respectively. […] Biofilms were rinsed with PBS (to remove loosely adherent planktonic cells) and inserted into the challenge plates. After exposure, biofilms were rinsed once in PBS and inserted into microtitre plates containing […] of recovery medium in each well (LB broth, 5 mM GSH, 5 mM L-cys, 1% v/v tween-20). These biofilms were disrupted into the recovery medium using a sonicator, and the recovered cells were serially diluted and plated for viable cell counting. Spot plates from these experiments were incubated for a minimum of 36 h at 35° C. before enumeration. Minimum inhibitory concentration (MIC) values were determined by reading the optical density at 650 nm (OD650) of challenge plates after 72 h at 35° C. using a THERMOmax microplate reader with SOFTMAX PRO data analysis software (Molecular Devices, Sunnyvale, Calif.).
(§2) For susceptibility testing, growth-curve data were used to calibrate incubation times to produce biofilms of similar cell density. […] In this model system, planktonic cells shed from the surface of biofilms served as the inoculum for MIC determinations.

[2] = tested on: Pseudomonas aeruginosa PA14 SCV; experiment: MIC determination, planktonic cells shed from biofilms (MBEC P&G device); conditions: SCV, planktonic cells, OD650 after 72 h at 35° C., mean ± SD of four trials
Method: as §1, §2

[3] = tested on: Pseudomonas aeruginosa PA14 gacS^−; experiment: as above; conditions: gacS^−, planktonic cells, OD650 after 72 h at 35° C., mean ± SD of four trials
Method: as §1, §2

[4] = tested on: Pseudomonas aeruginosa PA14 wild-type biofilms; conditions: wild type biofilms; 2 h exposure; 3 log10 reduction in viable cells
Excerpt: (§3) Biofilm formation. Biofilms were aerobically cultivated using the MBEC high-throughput (HTP) or Physiology and Genetics (P&G) device (Innovotech, Edmonton, Canada) as described in the manufacturer's instructions and by Ceri et al. (1999). To summarize, the parts of this batch culture apparatus were used in two ways. The top half of the plastic MBEC™-HTP device is a lid with 96 polystyrene pegs that also fits over a standard 96-well microtitre plate. For Biofilm growth, the bottom half was either (1) a corrugated trough that guided 22 mL of inoculum across the pegs when the device was placed on a rocker at 3.5 rocks per min (HTP format), or (2) a microtitre plate with […] of inoculum in each well that was placed on a gyrorotary shaker at 150 r.p.m. (P&G format). For either assay format, the inoculum was prepared to c. 10^7CFU/mL1 of the desired strain and the inoculated device was incubated at 35° C. and 95% relative humidity for the required time. Unless otherwise noted, all experiments utilized the MBEC P&G assay. Pegs from the devices were collected at specific time points for scanning electron microscopy and scanning confocal laser microscopy. Biofilm cell densities were evaluated by breaking pegs from the lid of the MBEC device with sterile pliers, rinsing the peg in PBS, and subsequent viable-cell counting as described above. PBS containing the […] surfactant Tween-20 (1% v/v) was used to assist in recovery of bacteria from the peg surfaces. Pegs were sonicated for 30 min in an Aquasonic model 250HT ultrasonic cleaner (VWR International, Mississauga, Canada). Samples of broth culture were collected at the same time points and viable cell counts were determined in a similar manner.
as §1, §2

[5] = tested on: Pseudomonas aeruginosa PA14 SCV biofilms; experiment: Biofilm susceptibility testing (viable cell counts, log-killing, MBEC99.9); conditions: for MBEC99.9: SCV biofilms, 2 h exposure, 3 log10 reduction in viable cells; for tolerance of SCV strain biofilms relative to the wild-type strain: ratio of MBEC99.9 values, SCV vs wild type
Excerpt: as §3, §1, §2

[6] = tested on: Pseudomonas aeruginosa PA14 gacS^− biofilms; experiment: as above; conditions: 2 h exposure; for Log-survival / No. of survivors / SCV frequency: LB broth; for MBEC99.9: gacS^− biofilms, 3 log10 reduction in viable cells
Excerpt: as §3, §1, §2

[7] = tested on: Pseudomonas aeruginosa PA14 gacS^− biofilms; experiment: Frequency of SCV cells arising from 24-h biofilms exposed for 18 h; conditions: in words
Method: In an alternative set of experiments, the frequency of SCV cells arising from 24-h biofilms of P. aeruginosa PA14 gacS was evaluated. Antibiotics were diluted from stock solutions into LB broth to obtain final concentrations of […]. These were arranged in triplicate in a micro-titre plate. Biofilms were incubated in these low concentrations of antibacterials for 18 h at 35° C. and 95% relative humidity. Goat and human serum were also assayed in this array, and were kind gifts from The Life and Environmental Sciences Animal Care Facility at the University of Calgary, Department of Biological Sciences. After exposure, biofilms were treated in a manner identical to that described above.
Frequency of phenotypic variation. During the course of susceptibility assays, the proportion of SCV cells recovered from biofilms after exposure to Ag^+ or H2O2 was increased relative to the corresponding growth controls. It was queried whether this may be true for other antimicrobial agents or growth conditions. An array of clinically used antibiotics, saline, and goat and human sera were examined for an ability to select for these SCVs from 24-h biofilms of P. aeruginosa PA14 gacS. Biofilms were exposed to these agents for 18 h and each assay was performed in triplicate. Viable cell counts were determined for each exposure condition, and log-survival was determined. The proportion of SCV cells in bacterial populations recovered from these exposure conditions was calculated as the mean of the proportions from each individual trial.

[8] = Pseudomonas aeruginosa, PA14, read-out: MIC72 h

| Compound | MIC ([1]; Pseudomonas aeruginosa, PA14, wild type, planktonic cells, OD650 after 72 h at 35° C., mean ± SD of four trials, read-out: MIC72 h) [µg/mL] | differences in planktonic cell susceptibility between the different strains [1] | MIC [2, 8] [µg/mL] | MIC [3, 8] [µg/mL] | MBEC99.9 [4] | MBEC99.9 [5] | tolerance of SCV strain biofilms relative to the wild-type strain [5] | Log-survival ([6]; 0.16 μg mL^−1) [log10 CFU peg^−1] | No. of survivors ([6]; 0.16 μg mL^−1) [log10 CFU peg^−1] | SCV frequency ([6]; 0.16 μg mL^−1) [%] | MBEC99.9 [6] | selection for SCVs / increase of the frequency of SCV cells compared with growth controls [7] | MIC72 h ([1]; wild type, planktonic cells, OD650 after 72 h at 35° C., mean ± SD of four trials) [mM] | MIC72 h [2] [mM] | MIC72 h [3] [mM] | Log-survival ([6]; 16 μg mL^−1) [log10 CFU peg^−1] | No. of survivors ([6]; 16 μg mL^−1) [log10 CFU peg^−1] | SCV frequency ([6]; 16 μg mL^−1) [%] |
| --- | --- | --- | --- | --- | --- | --- | --- | --- | --- | --- | --- | --- | --- | --- | --- | --- | --- | --- |
| O=C(O)c1cn(C2CC2)c2cc(N3CCNCC3)c(F)cc2c1=O [Ciprofloxacin] | 0.4 ± 0.2 (≈ 1.21 µM) | no significant differences | 0.8 ± 0.4 (≈ 2.41 µM) | 0.7 ± 0.3 (≈ 2.11 µM) | 0.16 ± 0 µg/mL | 0.64 ± 0.45 µg/mL | approximately four | −2.6 ± 0.8 | 2.4 ± 0.8 | 0 | 0.12 ± 0.05 µg/mL | in no instances | – | – | – | – | – | – |
| [Cu+2] [Cu^2+] | – | no significant differences | – | – | 8 ± 0 mM | 64 ± 0 mM | eight | – | – | – | 7 ± 2 mM | – | 8 ± 0 | 4 ± 0 | 8 ± 0 | −0.9 ± 0.1 | 4.2 ± 0.1 | 0 |

Source: patent US20080075730A1, “Methods and compositions for treating biofilms” (priority 2003, published 2008)
